Test system: Proteus strains (583 clinical isolates)
Test: Antimicrobial susceptibility testing (AST) on frozen reference panels, minimal inhibitory concentration (MIC) read visually
Type: cell-based, Proteus mirabilis, Proteus penneri and Proteus vulgaris
Conditions: classical AST
Protocol: The inventors selected 583 Proteus strains from the microbiology strain collection at Siemens Healthcare Diagnostics (West Sacramento, Calif.) for susceptibility testing and whole genome sequencing.
Frozen reference AST panels were prepared following Clinical Laboratory Standards Institute (CLSI) recommendations. The following antimicrobial agents (with μg/ml concentrations shown in parentheses) were included in the panels: Amoxicillin/K Clavulanate (0.5/0.25-64/32), Ampicillin (0.25-128), Ampicillin/Sulbactam (0.5/0.25-64/32), Aztreonam (0.25-64), Cefazolin (0.5-32), Cefepime (0.25-64), Cefotaxime (0.25-128), Ceftazidime (0.25-64), Ceftriaxone (0.25-128), Cefuroxime (1-64), Cephalothin (1-64), Ciprofloxacin (0.015-8), Ertepenem (0.12-32), Gentamicin (0.12-32), Imipenem (0.25-32), Levofloxacin (0.25-16), Meropenem (0.12-32), Piperacillin/Tazobactam (0.25/4-256/4), Tetracycline (0.5-64), Tobramycin (0.12-32), and Trimethoprim/Sulfamethoxazole (0.25/4.7-32/608). […]
Isolates were cultured on trypticase soy agar with 5% sheep blood (BBL, Cockeysville, Md.) and incubated in ambient air at 35±1° C. for 18-24 h. […] Panel results were read visually, and minimal inhibitory concentrations (MIC) were determined.
Proteus strains to be tested were seeded on agar plates and incubated under growth conditions for 24 hours. […] Bacterial growth was determined by observing turbidity. […]

CC1(C)S[C@@H]2[C@H](NC(=O)[C@H](N)c3ccccc3)C(=O)N2[C@H]1C(=O)O [ampicillin, Ampicillin]
resistance of Proteus observed against the agent: high resistance

From US20190032115A1, “GENETIC TESTING FOR […] GRAM-NEGATIVE PROTEUS AGAINST ANTIMICROBIAL AGENTS” (Ares Genetics GmbH, priority 2015, published 2019)
